Results taken from article PMC9769880, “Diverse Sensory Repertoire of Paralogous Chemoreceptors Tlp2, Tlp3, and Tlp4 in Campylobacter jejuni” (Microbiology Spectrum, 2022).
Where two headings read alike, the source gives them in different places.

Experiments:
[1] = target: T1, Tlp2 (Campylobacter jejuni, UniProt Q0PBZ3); assay: biochemical; assay type: binding
Method: (§1) His-tagged proteins (Tlp2, -3, and -4) were prepared as previously described ([11]) DNA segments encoding the periplasmic sensory domains (33 to 286 amino acids) of Tlp2 and (38 to 297 amino acids) of Tlp4 were amplified (see Table S7), ligated into pGEM-T Easy (Promega) and subcloned into pET-19b (Novagen) (see Table S6). Recombinant proteins were expressed in E. coli BL21(DE3) using 1 mM IPTG (isopropyl-β-D-thiogalactopyranoside) and purified using His-select-nickel chromatography as described previously ([8], [11]). The purity of the proteins was confirmed by SDS-PAGE and Western blot analysis with anti-His antibodies (Bio-Rad). Protein concentrations were determined using a NanoDrop spectrophotometer (Thermo Fisher).
(§2) Surface plasmon resonance (SPR) experiments were performed as described previously ([10], [11]) with the following modifications. Briefly, purified proteins were diluted to 0.15 μM in sodium acetate (pH 4.0) and immobilized onto an active flow cell of a CM5 sensor chip with a flow rate of 5 μL/min for 7 min of contact time using a standard amine coupling protocol. Immobilized protein levels for all three proteins ranged from 6028.3 to 9779.3 response units (RU) providing a minimum expected response maximum (RMax) between 20 and 50 RU for the small molecules tested. […] All ligands were prepared in PBS (pH 7.2) and serially diluted from 0.2 to 0.0125 mM. A 10-min dissociation period was allocated after the introduction of each analyte. SPR experiments were performed in single-cycle kinetics mode using the BIAcore S200 biosensor system (Cytiva) at 25°C in PBS (pH 7.2) at a flow rate of 30 μL/min. The equilibrium dissociation constant (KD) for each analyte was determined using BIAcore S200 Evaluation software with a report point 4 s after the injection stop to account for the bulk transfer of the small molecule against a large amount of immobilized protein (as shown in Fig. S5).

[2] = target: T2, Tlp4 (Campylobacter jejuni, UniProt Q0PBP3); assay: biochemical; assay type: binding
Method: as §1, §2

[3] = target: T3, Tlp3 (Campylobacter jejuni, UniProt Q0P864); assay: Glycan/small molecule arrays with Tlp3; details: yes/no binding
Method: (§3) Glycan (>400 monosaccharides or complex glycans) and small molecule arrays containing amino acids and salts were performed as described previously by Day et al. ([67]). Briefly, 1 μg of purified recombinant protein was complexed with anti-His antibody (Cell Signaling Technology) and rabbit anti-mouse/goat anti-rabbit Alexa 555-IgG (Thermo Scientific) at a molar ratio of 1:0.5:0.25 and then incubated on the array for […] in phosphate-buffered saline (PBS). The array slides were scanned at 488/520 nm and analyzed using InnoScan 1100 with MAPIX software. All arrays were performed in triplicate with a total of 12 data points for each glycan tested; the complete data set and MIRAGE (i.e., minimum information regarding a glycomics experiment) results are shown in Tables S3 and S8.
(§4) Table S8 - Supplementary glycan microarray document based on M IRAGE guidelines. D O I:
(§5) Classification Guidelines
(§6) 1. Sample: Glycan Binding Sample
(§7) Origin: Helicobacter pylori SS1; produced as a recombinant His - tagged protein in E.
(§8) The preparation of Tlp2,3, and 4 is explained in the Materials and Methods section:
(§9) Expression and purification of the periplasmic domain of Tlp2,3, and 4.
(§10) Sample Sample is a His Tagged protein containing only the periplasmic receptor domain of the modifications full length Tlp2,3, and 4transmembrane protein.
(§11) Please see Materials and Methods: Tlps 2/3/4 bind to a range of ligands, including […]
(§12) Proteins were complexed with mouse anti- his antibody, with secondary and tertiary AlexaFluor555 antibodies (rabbit anti-mouse, goat anti-rabbit) at a molar ratio of 4:2:1.
(§13) The protein/antibody complex was incubated on ice for 10 mins prior to placing on the Assay protocol array. Arrays were performed with 1 µg of complexed protein incubated on the array for 20 min. Arrays were then washed 3 times in Array PBS (PBS + 2mM MgCl2 + 2mM CaCl2) then dried by centrifugation for 3 min at 300 x g . Scanning was performed us ing an Innopsys InnoScan 1100AL and analyzed using Mapix (Innopsys). Yes/no binding was determined by six positive replicate spots in three replicate experiments. Positive […]
(§14) Glycan Glycans in this study are listed in Table S2 and is a published library in doi:
(§15) Glycans were prepared in one of two ways for printing:
(§16) Glycan 1. Glycans (with IDs in number/letter format; e.g. 1A, 4C, 7K) were sourced modifications commercially from Dextra Laboratories, Elicityl and Carbosythn and were made into glycoamines using the protocol published in Day et al 2009 (doi:
(§17) Glycan arrays: We only use glycan arrays as a yes/no binding tool. Due to this we look only at binding that is unambiguously above background vs lack of binding above background. Average background + 3x standard deviation of the background of 20 sets of 4 spots of DMF:DMSO only spots is applied to determine if binding observed is […]
(§18) Only spots with values equal to or greater than this value were considered as binding from data of any tested slide. These values are slide […]
(§19) Data Small molecule arrays: We only use amino acid arrays as a yes/no binding tool. Due interpretation to this we look only at binding that is unambiguously above background vs lack of binding above background. Average background + 3x standard deviation of the background of 6 spots of PBS + 2% glycerol only spots is applied to determine if […]
(§20) Only spots with values equal to or greater than this value were considered as binding from data of any tested slide. These values are slide dependent. […]

[4] = test system: WT Tlp3^LBD; assay: SPR competition assay (A-B-A inject); assay type: binding, Campylobacter jejuni; details: 15 seconds after injection-B; glucose 300 µM, fucose 300 μM, malic acid 200 μM
Method: . Competition A-B-A analyses determine the specificity of the potential ligand-binding site preferences of WT Tlp3^LBD. The bound protein is saturated with the first analyte (A), followed by the introduction of a second analyte (B); the assay is designed to show whether a cumulative response is observed after the second analyte (B) is added. A cumulative response indicates two independent binding sites, whereas the lack of a cumulative response indicates a single site where ligands compete for binding, i.e., when analyte A occupies a ligand binding site, analyte B cannot bind. […] All response data were normalized to a 100-Da molecular weight for each analyte, allowing direct comparison of the responses. Both actual RU values and theoretical values are recorded for comparison.
Figure S6. […] A) Injections are […]
at 300 μM for 60 seconds). Final responses units (RU) of injections are recorded (indicated by dashed vertical […]
81 at 15 s econds after injection- B and l fu cose […]
and fucose were compet ed was 4.4 RU ± 0.46. As this value sits be low 5 RU, it indicates direct competition for […]
Final respons es units (RU) of injections ar e re cor ded (indicated […]
As this value sits between
5.07- 13.5 RU, it indicates direct competition for the same site with glucos e replacing some of the bound malic acid during the 60 second injection- B.

[5] = target: T1, Tlp2; assay type: binding
Method: as §3, §4, §5, §6, §7, §8, §9, §10, §11, §12, §13, §14, §15, §16, §17, §18, §19, §20

[6] = target: T2, Tlp4; assay type: binding
Method: as §3, §4, §5, §6, §7, §8, §9, §10, §11, §12, §13, §14, §15, §16, §17, §18, §19, §20

[7] = target: T3, Tlp3; assay: biochemical; assay type: binding
Method: as §1, with “The purity of the proteins was confirmed by SDS-PAGE and Western blot analysis with anti-His antibodies (Bio-Rad).” left out
Surface plasmon resonance (SPR) experiments were performed as described previously ([10], [11]) with the following modifications. […] All ligands were prepared in PBS (pH 7.2) and serially diluted from 0.2 to 0.0125 mM. A 10-min dissociation period was allocated after the introduction of each analyte. SPR experiments were performed in single-cycle kinetics mode using the BIAcore S200 biosensor system (Cytiva) at 25°C in PBS (pH 7.2) at a flow rate of 30 μL/min. The equilibrium dissociation constant (KD) for each analyte was determined using BIAcore S200 Evaluation software with a report point 4 s after the injection stop to account for the bulk transfer of the small molecule against a large amount of immobilized protein (as shown in Fig. S5).

[8] = target: Tlp3^LBD K149A (Campylobacter jejuni, UniProt Q0P864, K149A); assay: biochemical
[9] = target: Tlp3^LBD D196A (Campylobacter jejuni, UniProt Q0P864, D196A); assay: biochemical
[10] = test system: Δtlp2,3,4 triple mutant; assay type: cell-based; details: compared with the other mutants
[11] = target: Tlp3^LBD W151A (Campylobacter jejuni, UniProt Q0P864, W151A); assay: biochemical
[12] = target: Tlp3^LBD D170A (Campylobacter jejuni, UniProt Q0P864); assay: biochemical
[13] = target: Tlp3^LBD D169A (Campylobacter jejuni, UniProt Q0P864, D169A); assay: biochemical
[14] = SPR KD, mean ± SD, NB = no binding, read-out: Tlp2 Affinity
[15] = SPR KD, mean ± SD, NB = no binding, read-out: Tlp4 Affinity

T1 sequence (Q0PBZ3 entry or part of it): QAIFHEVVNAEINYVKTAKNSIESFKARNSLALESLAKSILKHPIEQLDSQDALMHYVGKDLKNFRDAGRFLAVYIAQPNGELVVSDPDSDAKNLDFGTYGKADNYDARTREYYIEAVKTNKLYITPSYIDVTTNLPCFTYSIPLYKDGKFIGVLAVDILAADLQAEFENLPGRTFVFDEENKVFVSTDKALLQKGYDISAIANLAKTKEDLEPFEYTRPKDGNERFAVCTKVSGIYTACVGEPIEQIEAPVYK
T3 sequence (Q0P864 entry or part of it): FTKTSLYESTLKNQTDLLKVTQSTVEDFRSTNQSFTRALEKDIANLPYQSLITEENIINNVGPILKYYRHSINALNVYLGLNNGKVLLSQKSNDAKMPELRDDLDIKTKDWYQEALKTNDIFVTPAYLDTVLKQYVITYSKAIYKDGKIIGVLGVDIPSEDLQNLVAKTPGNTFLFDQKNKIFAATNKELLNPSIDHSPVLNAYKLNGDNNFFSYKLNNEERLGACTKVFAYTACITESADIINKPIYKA
T2 sequence (Q0PBP3 entry or part of it): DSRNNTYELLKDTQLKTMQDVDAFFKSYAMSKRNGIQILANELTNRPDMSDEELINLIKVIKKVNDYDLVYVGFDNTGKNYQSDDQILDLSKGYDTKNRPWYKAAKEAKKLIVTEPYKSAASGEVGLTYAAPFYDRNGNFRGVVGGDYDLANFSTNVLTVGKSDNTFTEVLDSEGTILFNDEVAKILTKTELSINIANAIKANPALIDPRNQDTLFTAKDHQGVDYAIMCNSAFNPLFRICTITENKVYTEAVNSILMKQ
Tlp3^LBD K149A, sequence (Q0P864 41-290 K149A): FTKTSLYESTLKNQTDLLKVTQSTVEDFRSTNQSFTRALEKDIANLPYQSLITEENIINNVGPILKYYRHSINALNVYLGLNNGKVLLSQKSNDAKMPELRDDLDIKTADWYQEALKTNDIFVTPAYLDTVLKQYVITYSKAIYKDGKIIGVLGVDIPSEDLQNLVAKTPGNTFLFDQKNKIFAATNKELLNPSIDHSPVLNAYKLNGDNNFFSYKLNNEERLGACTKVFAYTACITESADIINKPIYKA
Tlp3^LBD W151A, sequence (Q0P864 41-290 W151A): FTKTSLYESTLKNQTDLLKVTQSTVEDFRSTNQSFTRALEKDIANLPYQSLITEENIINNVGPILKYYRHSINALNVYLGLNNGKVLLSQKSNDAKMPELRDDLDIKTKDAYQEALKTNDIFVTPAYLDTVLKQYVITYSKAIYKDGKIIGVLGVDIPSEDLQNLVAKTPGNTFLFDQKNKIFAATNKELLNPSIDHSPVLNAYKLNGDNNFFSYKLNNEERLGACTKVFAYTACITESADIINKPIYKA
Tlp3^LBD D196A, sequence (Q0P864 41-290 D196A): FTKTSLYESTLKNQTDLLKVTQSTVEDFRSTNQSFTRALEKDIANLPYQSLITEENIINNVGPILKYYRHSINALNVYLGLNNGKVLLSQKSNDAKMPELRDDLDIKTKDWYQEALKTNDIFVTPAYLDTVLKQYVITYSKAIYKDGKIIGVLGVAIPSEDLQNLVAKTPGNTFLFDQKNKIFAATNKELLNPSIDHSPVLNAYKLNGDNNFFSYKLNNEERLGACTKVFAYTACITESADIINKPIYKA
Tlp3^LBD D169A, sequence (Q0P864 41-290 D169A): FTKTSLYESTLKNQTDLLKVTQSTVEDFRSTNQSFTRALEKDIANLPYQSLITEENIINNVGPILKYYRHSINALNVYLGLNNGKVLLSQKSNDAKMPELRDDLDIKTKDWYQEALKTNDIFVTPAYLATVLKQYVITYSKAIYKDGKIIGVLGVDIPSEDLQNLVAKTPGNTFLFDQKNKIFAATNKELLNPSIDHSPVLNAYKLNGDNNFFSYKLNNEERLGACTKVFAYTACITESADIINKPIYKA
Tlp3^LBD D170A, sequence (Q0P864 41-290 T170A): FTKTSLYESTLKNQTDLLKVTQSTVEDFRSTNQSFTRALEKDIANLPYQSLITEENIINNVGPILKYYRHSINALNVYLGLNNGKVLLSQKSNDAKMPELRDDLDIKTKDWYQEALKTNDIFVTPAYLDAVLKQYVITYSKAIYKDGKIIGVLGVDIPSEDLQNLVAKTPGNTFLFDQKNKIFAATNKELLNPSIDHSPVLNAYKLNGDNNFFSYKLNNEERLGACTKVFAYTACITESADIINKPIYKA

SMILES	Kd [1, 14] [µM]	Kd [2, 15] [µM]	binding to Tlp3 on glycan/small molecule array [3]	SPR response of single analyte [4] [RU]	binding to Tlp2 on glycan/small molecule array ([5]; yes/no binding)	binding to Tlp4 on glycan/small molecule array ([6]; yes/no binding)	also measured
OC[C@H]1OC(O)[C@H](O)[C@@H](O)[C@@H]1O (stereo partly drawn) [Glucose]	18.1 ± 2.2	18.3 ± 1.1	interacted	5.07	interacted	interacted	–
CC[C@H](C)[C@H](N)C(=O)O [Isoleucine]	> 200	> 200	–	–	–	–	–
O=C(O)CC(O)C(=O)O (stereo not drawn) [Malic acid]	> 10000	> 10000	–	13.5	–	–	–
CSCC[C@H](N)C(=O)O [Methionine]	–	–	–	–	–	–	Kd [1]: 1.9 ± 1.2 µM; Kd [2]: 6 ± 4.7 µM; Kd ([7]; read-out: Tlp3 Affinity): > 200 µM; binding to Tlp2 on glycan/small molecule array [5]: bound; binding to Tlp4 on glycan/small molecule array [6]: bound
c1ncc2nc[nH]c2n1 [Purine]	5.4 ± 1.1	1.2 ± 0.7	bind specifically	–	bound	bound	Kd [8]: 41.9 ± 24 µM; Kd [9]: 35.8 ± 1.5 µM; Kd [7]: 37.2 ± 17.4 µM; migration toward ligand, Δtlp2,3,4 triple mutant [10]: greatest reduction in migration; Kd [11]: 36.1 ± 15.7 µM; Kd [12]: 20.6 ± 4 µM; Kd [13]: 15.7 ± 6.6 µM
N[C@@H](CO)C(=O)O [Serine]	6.9 ± 2.4	14.3 ± 3.2	–	–	bound	bound	Kd ([7]; SPR KD, mean ± SD, NB = no binding, read-out: Tlp3 Affinity): > 200 µM
